Test results reported in patent publication US20200110072A1, “IMAGING METHODS TO ASSESS THE EFFICACY OF ANTICANCER DRUGS IN VITRO USING SPONTANEOUSLY-FORMING SPHEROIDS” (ROWAN UNIVERSITY, priority 2016, published 2020).
“Also recorded” adds a separate entry of the source. One block for each compound: values may come before it.

Key:
[1] = system: spheroids^MARY-X; assay: Spheroids^MARY-X drug screen: bright-field image analysis of spheroid dissolution (dissolution indices); type: cell-based, human; details: for Response (deviation from well-circumscribed spheroid edge / spheroid dissolution): increasing doses, bright-field images
Method: In particular, the invention provides novel methods for determining drug response and calculating drug potency. In drug screens according to the invention spheroids or spheroids^MARY-X are seeded in multi-well plates, treated with vehicle only (control) and increasing doses of one or more drugs of interest. Following a 24-hr treatment period each well undergoes analysis to assess dissolution of the spheroids^MARY-X (see FIGS. 4A and 4B).
In exemplary embodiments the dissolution index is determined by applying an image analysis program on ImageJ that measures the circularity of an object's area and perimeter where ‘1’ signifies a perfect circle (i.e. intact spheroid) and numbers approaching ‘0’ signify loss of circularity (i.e. dissolute spheroid). Note that ‘0’ signifies a straight line and can never be achieved in image analysis of spheroids given the innate circularity of individual cells (see FIG. 4A). The induction of apoptosis correlates with the loss of well-circumscribed edges of the usually tight, compact spheroids, i.e. dissolution is consistent with cell death of the spheroid/embolus.
Spheroids^MARY-X Dissolution Indices: The spheroid dissolution index was determined by applying an image analysis program on ImageJ that measures the circularity of an object's area and perimeter where ‘1’ signifies a perfect circle (i.e. intact spheroid) and numbers approaching ‘0’ signify loss of circularity (i.e. dissolute spheroid). Note that ‘0’ signifies a straight line and can never be achieved in image analysis of spheroids given the innate circularity of individual cells.
Drug Screen: The 40-100 μm spheroids were distributed in equal number (˜30-50 spheroids/well) to a multi-well plate. The spheroids^MARY-X was treated with vehicle only (DMSO) and increasing doses of drug of interest in each 24-well plate. Following 24 hr treatment periods each well was imaged and analyzed with ImageJ for measurement of dissolution of the spheroids^MARY-X. The induction of apoptosis is correlated with the loss of the well circumscribed edges of the usually tight, compact spheroids^MARY-X i.e. dissolution is consistent with cell death of the spheroid/embolus.

[2] = system: triple-negative breast cancer 2-D culture models; details: preclinical analysis; cited from earlier work
[3] = system: spheroids^MARY-X; assay: Spheroids^MARY-X dual-fluorescence viability assay (acridine orange / propidium iodide, Cellometer K2); type: cell-based, human; details: 24-hour treatment; for Response in dual fluorescence viability assay: AO/PI staining; for IC50: Homo sapiens, AO/PI, read-out: IC50 from dose-response curve, dual fluorescence viability assay
Method: Spheroids^MARY-X Viability Assay: Dual-fluorescent assays were performed on a Cellometer K2 (Nexcelom Biosciences, Lawrence, Mass.) using the viability stains, acridine orange and propium iodide.
Dissolution indices vs. standard viability assay: In an effort to validate response data acquired by image analysis (i.e. dissolution indices) an alternate method, traditionally used to determine and quantify cell viability, and was performed on a replicate drug screen. This drug screen reproduced drug dose parameters of paclitaxel (PTX), gambogic acid (GA) and MAD28. Viability was measured by dual fluorescence analysis of propidium iodide (PI) and acridine orange (AO). Following the 24-hour treatment period, spheroids^MARY-X were analyzed using the Cellometer K2 in the dual-fluorescence viability assay. The nuclear stains AO and PI were added to the control (vehicle only) and treated spheroids^MARY-X, where AO stains both live and dead (green) cells and PI stains only dead (orange) cells with compromised membranes. Fluorescent images presented here are one of eight random fields captured for the viability analyses.

Structure (SMILES): CC(C)NCCCn1c(Sc2cc3c(cc2I)OCO3)nc2c(N)ncnc21 [PU-H71]
Response (deviation from well-circumscribed spheroid edge / spheroid dissolution) ([1]; 24-hour treatment): no response
Response [2]: complete response

Structure (SMILES): CC(C)C[C@H](NC(=O)[C@H](Cc1ccccc1)NC(=O)c1cnccn1)B(O)O [Bortezomib, bortezomib]
Response (deviation from well-circumscribed spheroid edge / spheroid dissolution) ([1]; 24-hour treatment): Low - Moderate
Response (deviation from well-circumscribed spheroid edge / spheroid dissolution) ([1]; 24-hour treatment, listed as bortexomib): Low to moderate
Response (deviation from well-circumscribed spheroid edge / spheroid dissolution) ([1]; 24-hour treatment, listed as bortezomab): slight response
Response (deviation from well-circumscribed spheroid edge / spheroid dissolution) ([1]; 24-hour treatment, listed as bortezomib): slight response; also recorded: low response

Structure (SMILES): N.N.[Cl][Pt][Cl] [Cisplatin, cisplatin]
Response (deviation from well-circumscribed spheroid edge / spheroid dissolution) ([1]; 24-hour treatment): No
Response (deviation from well-circumscribed spheroid edge / spheroid dissolution) ([1]; 24-hour treatment, listed as cisplatin): no drug response

Structure (SMILES): CC(C)=CCC[C@]1(C)C=Cc2c(O)c3c(c(CC=C(C)C)c2O1)O[C@]12C(=C[C@@H]4C[C@H]1C(C)(C)O[C@@]2(C/C=C(/C)C(=O)O)C4=O)C3=O [Gambogic acid]
Response (deviation from well-circumscribed spheroid edge / spheroid dissolution) ([1]; 24-hour treatment): complete
IC50 ([1]; Homo sapiens, as printed in b33 for gambogic acid, read-out: IC50, spheroidal dissolution and apoptosis): 0.54 µM
IC50 ([1]; Homo sapiens, read-out: IC50 from dissolution indices): 0.54 µM
Response (spheroid dissolution) ([1]; at 2.5 μM concentration (MAD44: similar concentrations)): complete spheroid dissolution
Response in dual fluorescence viability assay [3]: complete
Response in dual fluorescence viability assay ([3]; listed as GA): complete response
IC50 [3]: 1.2 µM

Structure (SMILES): COc1cccc2c1C(=O)c1c(O)c3c(c(O)c1C2=O)C[C@@](O)(C(=O)CO)C[C@@H]3O[C@H]1C[C@H](N)[C@H](O)[C@H](C)O1 [Doxorubicin, doxorubicin]
Response (deviation from well-circumscribed spheroid edge / spheroid dissolution) ([1]; 24-hour treatment): mixed response
Response (deviation from well-circumscribed spheroid edge / spheroid dissolution) ([1]; 24-hour treatment, listed as Doxorubicin (DOX)): Moderate - Complete

Structure (SMILES): CN(Cc1cnc2nc(N)nc(N)c2n1)c1ccc(C(=O)N[C@@H](CCC(=O)O)C(=O)O)cc1 [Methotrexate, methotrexate]
Response (deviation from well-circumscribed spheroid edge / spheroid dissolution) ([1]; 24-hour treatment): no response and No
Response (deviation from well-circumscribed spheroid edge / spheroid dissolution) ([1]; 24-hour treatment, listed as methotrexate): no drug response

Structure (SMILES): CS(=O)(=O)CCNCc1ccc(-c2ccc3ncnc(Nc4ccc(OCc5cccc(F)c5)c(Cl)c4)c3c2)o1 [Lapatinib, lapatinib]
Response (deviation from well-circumscribed spheroid edge / spheroid dissolution) ([1]; 24-hour treatment): Low - Moderate
Response (deviation from well-circumscribed spheroid edge / spheroid dissolution) ([1]; 24-hour treatment, listed as lapatinib): Low to moderate; also recorded: slight response; also recorded: low response

IC50 ([1]; 24-hour treatment, ImageJ circularity, read-out: IC50 from dissolution indices dose-response curve): 7.79 µM
IC50 ([1]; Homo sapiens, 24 h, 24-hour treatment, ImageJ circularity, read-out: IC50 from dissolution indices dose-response curve): 7.8 µM
Structure (SMILES): CC(=O)O[C@H]1C(=O)[C@@]2(C)[C@H]([C@H](OC(=O)c3ccccc3)[C@]3(O)C[C@H](OC(=O)[C@H](O)[C@@H](NC(=O)c4ccccc4)c4ccccc4)C(C)=C1C3(C)C)[C@]1(OC(C)=O)CO[C@@H]1C[C@@H]2O [Paclitaxel, paclitaxel]
Response (deviation from well-circumscribed spheroid edge / spheroid dissolution) ([1]; 24-hour treatment): virtually ineffective
Response ([1]; at a 5.0 μM concentration): no to low
Response in dual fluorescence viability assay [3]: ineffective at producing a ‘complete’ response
Response in dual fluorescence viability assay ([3]; listed as PTX): little if any activity
IC50 [3]: 5.4 µM
